Ki data for 25 compounds are collected here from US10981894B2, “Melanocortin subtype-2 receptor (MC2R) antagonists and uses thereof” (Crinetics Pharmaceuticals, Inc., priority 2018, dated 2021).

The target of this assay is hMC2 receptor (Homo sapiens, UniProt Q01718). Description: hMC2 membrane binding assay ([125I]ACTH (1-39) Tyr23, SPA). More on the design: scale not given here. The following applies: crude hMC2R membranes from CRE-bla-CHO-K1 cells expressing hMC2 receptor and hMRAP; [125I]ACTH (1-39) Tyr23 0.2 nM; 1.5 hours at room temperature; read-out: MC2R binding potency. The method in brief: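 Ki comes from non-linear regression of SPA scintillation counts. Displacement of 0.2 nM [125I]ACTH(1-39) Tyr23 by compound dose series (usually 0–10,000 nM final) ran 1.5 h at room temperature. Membranes came from CHO-K1 CRE-bla cells stably expressing hMC2R plus hMRAP, bead-coupled in pH 7.4 buffer with 0.2% BSA.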
Chain of hMC2 receptor (Q01718 whole entry): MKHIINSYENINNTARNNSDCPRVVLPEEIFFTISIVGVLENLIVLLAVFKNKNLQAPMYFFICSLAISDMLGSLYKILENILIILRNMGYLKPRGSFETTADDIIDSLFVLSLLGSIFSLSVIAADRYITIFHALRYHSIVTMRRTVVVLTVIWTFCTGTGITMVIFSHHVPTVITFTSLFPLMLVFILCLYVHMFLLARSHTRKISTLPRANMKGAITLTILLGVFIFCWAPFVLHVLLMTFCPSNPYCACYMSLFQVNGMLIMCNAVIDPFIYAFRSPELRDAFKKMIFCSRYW
Chain of hMC2 receptor (Q8TCY5 whole entry partner): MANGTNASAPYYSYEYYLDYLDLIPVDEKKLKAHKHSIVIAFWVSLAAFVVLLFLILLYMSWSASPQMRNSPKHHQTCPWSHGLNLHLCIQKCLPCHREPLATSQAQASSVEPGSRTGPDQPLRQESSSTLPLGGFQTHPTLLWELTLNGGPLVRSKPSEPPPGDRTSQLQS
Regarding `CCOc1ccccc1-c1ccc(N2CCN(C(=O)c3ccc(F)cc3C(F)F)C[C@H]2CC)c(C(=O)N[C@@H]2CCNC2)n1` [Compound 1-292, 3-[(2R)-4-[2-(difluoromethyl)-4-fluorobenzoyl]-2-ethylpiperazin-1-yl]-6-(2-ethoxyphenyl)-N-[(3R)-pyrrolidin-3-yl]pyridine-2-carboxamide], the Ki was < 0.01 µM.
With `CCOc1ccccc1-c1ccc(N2CCN(C(=O)n3ccc4cccc(C#N)c43)C[C@H]2CC)c(C(=O)N[C@@H]2CCN(C)C2)n1` [Compound 1-432, 3-[(2R)-4-(7-cyano-1H-indole-1-carbonyl)-2-ethylpiperazin-1-yl]-6-(2-ethoxyphenyl)-N-[(3R)-1-methylpyrrolidin-3-yl]pyridine-2-carboxamide], the Ki was < 0.01 µM.
Take `CCOc1ncccc1-c1ccc(N2CCN(C(=O)O[C@@H](C(C)(C)C)C(F)(F)F)C[C@H]2CC)c(C(=O)N[C@@H]2CCN(C)C2)n1` (single isomer, unassigned) [Compound 1-407]: the Ki was < 0.01 µM.
Consider `CCOc1ccccc1-c1ccc(N2CCN(C(=O)C3(C(F)(F)F)CCC3)C[C@H]2CC)c(C(=O)N[C@@H]2CN3CCC2CC3)n1` [Compound 1-410, N-[(3S)-1-azabicyclo[2.2.2]octan-3-yl]-6-(2-ethoxyphenyl)-3-[(2R)-2-ethyl-4-[1-(trifluoromethyl)cyclobutanecarbonyl]piperazin-1-yl]pyridine-2-carboxamide], for which the Ki is < 0.01 µM.
The figure for `CCOc1ncccc1-c1ccc(N2CCN(C(=O)c3ccc(Cl)cc3C(F)(F)F)C[C@H]2CC)c(C(=O)N[C@H]2CCNC2)n1` [Compound 1-214, 5-[(2R)-4-[4-chloro-2-(trifluoromethyl)benzoyl]-2-ethylpiperazin-1-yl]-2′-ethoxy-N-[(3S)-pyrrolidin-3-yl]-[2,3′-bipyridine]-6-carboxamide] is < 0.01 µM; for `CCOc1ncccc1-c1ccc(N2CCN(C(=O)c3ccc(C(F)(F)F)cc3N(C)C)C[C@H]2CC)c(C(=O)NCCN)c1` [Compound 1-107, N-(2-aminoethyl)-2-[(2R)-4-[2-(dimethylamino)-4-(trifluoromethyl)benzoyl]-2-ethylpiperazin-1-yl]-5-(2-ethoxypyridin-3-yl)benzamide] it is < 0.01 µM.
On to `CCOc1ccccc1-c1ccc(N2CCN(C(=O)C3(C(F)(F)F)CCCC3)C[C@H]2CC)c(C(=O)N[C@H]2CCN(C)C2)n1` [Compound 1-401, 6-(2-ethoxyphenyl)-3-[(2R)-2-ethyl-4-[1-(trifluoromethyl)cyclopentanecarbonyl]piperazin-1-yl]-N-[(3S)-1-methylpyrrolidin-3-yl]pyridine-2-carboxamide], for which the Ki was < 0.01 µM.
For the compound `CCOc1ncccc1-c1ccc(N2CCN(C(=O)c3ccc(OC)nc3C(F)(F)F)C[C@H]2CC)c(C(=O)N[C@@H]2CCNC2)c1F` [Compound 1-271, 3-(2-ethoxypyridin-3-yl)-6-[(2R)-2-ethyl-4-[6-methoxy-2-(trifluoromethyl)pyridine-3-carbonyl]piperazin-1-yl]-2-fluoro-N-[(3R)-pyrrolidin-3-yl]benzamide], the Ki is < 0.01 µM.
With `CCOc1ccccc1-c1ccc(N2CCN(C(=O)c3c(F)cc(C)cc3-c3ccc(CN)cc3)C[C@H]2CC)c(C(=O)NCCN)c1` [Compound 1-27, N-(2-aminoethyl)-4-[(2R)-4-[4′-(aminomethyl)-3-fluoro-5-methyl-[1,1′-biphenyl]-2-carbonyl]-2-ethylpiperazin-1-yl]-2′-ethoxy-[1,1′-biphenyl]-3-carboxamide], the Ki was < 0.01 µM.
Take `CCOc1ncccc1-c1ccc(N2CCN(C(=O)c3ccc(Cl)cc3C(F)(F)F)C[C@H]2CC)c(C(=O)NCCN(C)C)c1` [Compound 1-47, 2-[(2R)-4-[4-chloro-2-(trifluoromethyl)benzoyl]-2-ethylpiperazin-1-yl]-N-[2-(dimethylamino)ethyl]-5-(2-ethoxypyridin-3-yl)benzamide]: the Ki was < 0.01 µM.
Consider `CCOc1ncccc1-c1ccc(N2CCN(C(=O)c3ccc(F)cc3C(F)(F)F)C[C@H]2CC)c(C(=O)NCCN)c1` [Compound 1-58, N-(2-aminoethyl)-5-(2-ethoxypyridin-3-yl)-2-[(2R)-2-ethyl-4-[4-fluoro-2-(trifluoromethyl)benzoyl]piperazin-1-yl]benzamide], for which the Ki was < 0.01 µM.
As to `CCOc1ccccc1-c1ccc(N2CCN(C(=O)c3ccc(Cl)cc3C(F)F)C[C@H]2CC)c(C(=O)N[C@@H]2CCNC2)n1` [Compound 1-288, 3-[(2R)-4-[4-chloro-2-(difluoromethyl)benzoyl]-2-ethylpiperazin-1-yl]-6-(2-ethoxyphenyl)-N-[(3R)-pyrrolidin-3-yl]pyridine-2-carboxamide], the Ki is < 0.01 µM.
Take `CCOc1ncccc1-c1ccc(N2CCN(C(=O)C3(C(F)(F)F)CCC3)C[C@H]2CC)c(C(=O)N[C@@H]2CN3CCC2CC3)n1` [Compound 1-411, N-[(3S)-1-azabicyclo[2.2.2]octan-3-yl]-2′-ethoxy-5-[(2R)-2-ethyl-4-[1-(trifluoromethyl)cyclobutanecarbonyl]piperazin-1-yl]-[2,3′-bipyridine]-6-carboxamide]: the Ki was < 0.01 µM.
Turning to `CCOc1ncccc1-c1ccc(N2CCN(C(=O)N3CCCC3(C)C(F)(F)F)C[C@H]2CC)c(C(=O)N[C@@H]2CCNC2)n1` (stereo partly drawn) [Compound 1-326, 2′-ethoxy-5-[(2R)-2-ethyl-4-[2-methyl-2-(trifluoromethyl)pyrrolidine-1-carbonyl]piperazin-1-yl]-N-[(3R)-pyrrolidin-3-yl]-[2,3′-bipyridine]-6-carboxamide], the Ki is < 0.01 µM.
In the case of `CCOc1ncccc1-c1ccc(N2CCN(C(=O)N3CCC[C@H]3C(F)(F)F)C[C@H]2CC)c(C(=O)N[C@@H]2CCNC2)n1` [Compound 1-306, 2′-ethoxy-5-[(2R)-2-ethyl-4-[(2S)-2-(trifluoromethyl)pyrrolidine-1-carbonyl]piperazin-1-yl]-N-[(3R)-pyrrolidin-3-yl]-[2,3′-bipyridine]-6-carboxamide], the Ki is < 0.01 µM.
As for `CCOc1ncccc1-c1ccc(N2CCN(C(=O)c3ccc(F)cc3C(F)(F)F)C[C@H]2CC)c(C(=O)N[C@@H]2CCN(C)C2)n1` [Compound 1-258, 2′-ethoxy-5-[(2R)-2-ethyl-4-[4-fluoro-2-(trifluoromethyl)benzoyl]piperazin-1-yl]-N-[(3R)-1-methylpyrrolidin-3-yl]-[2,3′-bipyridine]-6-carboxamide], the figure is < 0.01 µM; as for `CCOc1ncccc1-c1ccc(N2CCN(C(=O)c3ccc(Cl)cc3C(F)(F)F)C[C@H]2CC)c(C(=O)NC[C@H]2CCN2)c1` [Compound 1-102, N-{[(2R)-azetidin-2-yl]methyl}-2-[(2R)-4-[4-chloro-2-(trifluoromethyl)benzoyl]-2-ethylpiperazin-1-yl]-5-(2-ethoxypyridin-3-yl)benzamide], < 0.01 µM; as for `CCOc1ncccc1-c1ccc(N2CCN(C(=O)c3ccc(Cl)cc3C(F)(F)F)C[C@H]2CC)c(C(=O)NCCc2cnc[nH]2)c1` [Compound 1-84, 2-[(2R)-4-[4-chloro-2-(trifluoromethyl)benzoyl]-2-ethylpiperazin-1-yl]-5-(2-ethoxypyridin-3-yl)-N-[2-(1H-imidazol-5-yl)ethyl]benzamide], < 0.01 µM.
As for `CCOc1ncccc1-c1ccc(N2CCN(C(=O)c3ccc(OC)cc3C(F)(F)F)C[C@H]2CC)c(C(=O)NCCNC)c1F` [Compound 1-155, 3-(2-ethoxypyridin-3-yl)-6-[(2R)-2-ethyl-4-[4-methoxy-2-(trifluoromethyl)benzoyl]piperazin-1-yl]-2-fluoro-N-[2-(methylamino)ethyl]benzamide], the Ki is < 0.01 µM.
As for `CCOc1ncccc1-c1ccc(N2CCN(C(=O)c3ccc(Cl)cc3C(F)(F)F)C[C@H]2CC)c(C(=O)N[C@H]2CCN(C)C2)c1F` [Compound 1-201, 6-[(2R)-4-[4-chloro-2-(trifluoromethyl)benzoyl]-2-ethylpiperazin-1-yl]-3-(2-ethoxypyridin-3-yl)-2-fluoro-N-[(3S)-1-methylpyrrolidin-3-yl]benzamide], the figure is < 0.01 µM; as for `CCOc1ncccc1-c1ccc(N2CCN(C(=O)c3ccc(Cl)cc3C(F)(F)F)C[C@H]2CC)c(C(=O)NC[C@@H]2CCN2C)c1F` [Compound 1-229, 6-[(2R)-4-[4-chloro-2-(trifluoromethyl)benzoyl]-2-ethylpiperazin-1-yl]-3-(2-ethoxypyridin-3-yl)-2-fluoro-N-{[(2S)-1-methylazetidin-2-yl]methyl}benzamide], < 0.01 µM.
As for `CCOc1ncccc1-c1ccc(N2CCN(C(=O)C3(c4ccccc4)CCCC3)C[C@H]2CC)c(C(=O)N[C@@H]2CCNC2)n1` [Compound 1-352, 2′-ethoxy-5-[(2R)-2-ethyl-4-(1-phenylcyclopentanecarbonyl)piperazin-1-yl]-N-[(3R)-pyrrolidin-3-yl]-[2,3′-bipyridine]-6-carboxamide], the figure is < 0.01 µM; as for `CCOc1ncccc1-c1ccc(N2CCN(C(=O)c3ccc(Cl)cc3C(F)(F)F)C[C@H]2CC)c(C(=O)NCCN)c1` [Compound 1-37, N-(2-aminoethyl)-2-[(2R)-4-[4-chloro-2-(trifluoromethyl)benzoyl]-2-ethylpiperazin-1-yl]-5-(2-ethoxypyridin-3-yl)benzamide], < 0.01 µM; as for `CC[C@@H]1CN(C(=O)c2ccc(C(F)(F)F)cc2Cl)CCN1c1ccc(-c2ccccc2OC)cc1C(=O)NCCN` [Compound 1-2, N-(2-aminoethyl)-4-[(2R)-4-[2-chloro-4-(trifluoromethyl)benzoyl]-2-ethylpiperazin-1-yl]-2′-methoxy-[1,1′-biphenyl]-3-carboxamide], < 0.01 µM.
As for `CCOc1ncccc1-c1ccc(N2CCN(C(=O)c3ccc(C)cc3Cl)C[C@H]2CC)c(C(=O)N[C@@H]2CCNC2)c1F` [Compound 1-110, 6-[(2R)-4-(2-chloro-4-methylbenzoyl)-2-ethylpiperazin-1-yl]-3-(2-ethoxypyridin-3-yl)-2-fluoro-N-[(3R)-pyrrolidin-3-yl]benzamide], the Ki was < 0.01 µM.
